Measurements: PubChem BioAssay (NCI)
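Test compounds were applied to cells in 96-well plates for 48 hours at 5 doses. The concentration for 50% growth inhibition is given as GI50. TGI: total growth inhibition.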

What was measured:
Test in all cases: NCI-60 cell line screen, 48 h
HCT-116 colon = tested on: HCT-116 colon
HCT-15 colon = tested on: HCT-15 colon
KM12 colon = tested on: KM12 colon
M14 melanoma = tested on: M14 melanoma
OVCAR-5 ovarian = tested on: OVCAR-5 ovarian
PC-3 prostate = tested on: PC-3 prostate
RPMI-8226 leukemia = tested on: RPMI-8226 leukemia
SF-268 CNS = tested on: SF-268 CNS
TK-10 renal = tested on: TK-10 renal
UACC-257 melanoma = tested on: UACC-257 melanoma

SMILES | TGI (HCT-116 colon) | TGI (HCT-15 colon) | TGI (KM12 colon) | TGI (M14 melanoma) | TGI (OVCAR-5 ovarian) | TGI (PC-3 prostate) | TGI (RPMI-8226 leukemia) | TGI (SF-268 CNS) | TGI (TK-10 renal) | TGI (UACC-257 melanoma) | GI50 (HCT-116 colon) | GI50 (HCT-15 colon) | GI50 (KM12 colon) | GI50 (M14 melanoma) | GI50 (OVCAR-5 ovarian) | GI50 (PC-3 prostate) | GI50 (SF-268 CNS) | GI50 (TK-10 renal) | GI50 (UACC-257 melanoma) | GI50 (RPMI-8226 leukemia)
NCCSCCc1ccccc1 | > 100 µM | > 100 µM | > 100 µM | > 100 µM | > 100 µM | > 100 µM | > 100 µM | > 100 µM | > 100 µM | > 100 µM |  |  |  |  |  |  |  |  |  | 
Clc1nc(Cl)c2ncn(Cc3ccc(Cn4cnc5c(Cl)nc(Cl)nc54)cc3)c2n1 | 16.2 µM | 19.3 µM | 31.2 µM | 27 µM | 10.9 µM | 16.3 µM | 7.07 µM | 23.4 µM | 35.2 µM | 30.5 µM | 852 nM | 6.24 µM | 12500 nM | 11.2 µM | 2.03 µM | 1560 nM | 3.4 µM | 15.6 µM | 4.87 µM | 
O=[N+]([O-])c1ccc(S(=O)(=O)Cc2ccccc2)c2nonc12 | 31.8 µM | 51.7 µM | 38.7 µM | 31.2 µM | > 100 µM | 34.6 µM | 64.2 µM | 39.3 µM | 32 µM | 30.1 µM |  |  |  |  |  |  |  |  |  | 
Cc1ccc(-c2nc(N3CCCNCC3)c3oc(-c4ccc(C)cc4)nc3n2)cc1 | 2.92 µM | 2.96 µM | 3.2 µM | 3.55 µM | 3.17 µM | 2.91 µM | 4.22 µM | 3.48 µM | 3.96 µM | 41.1 µM | 1570 nM | 1.49 µM | 1720 nM | 1.85 µM | 1.75 µM | 1510 nM | 1.77 µM | 2.08 µM | 19.8 µM | 1890 nM
C=CCCCc1ccc(C(O)CCCCCCCCCCCC)o1 (configuration not stated) | 28.9 µM | 30.3 µM | 46 µM | 38.9 µM | 30.4 µM | 46 µM | 44.7 µM | 35 µM | 38.3 µM | 48.2 µM | 15500 nM | 15.5 µM | 21300 nM | 18.9 µM | 15.9 µM | 19800 nM | 16.1 µM | 21 µM | 21.8 µM | 19200 nM
COc1cc(Cl)cc(-c2nn(-c3cccc(NC(=O)Nc4ccc(Cl)c(C(F)(F)F)c4)c3)cc2-c2ccncc2)c1 | 2.36 µM | 2.4 µM | 4.44 µM | 3.47 µM | 7.15 µM | 2.12 µM | 2.07 µM | 12.1 µM |  | 4.93 µM | 631 nM | 0.493 µM | 555 nM | 1.33 µM | 2.13 µM | 342 nM | 2.66 µM |  | 1.89 µM | 402 nM
Cc1nc(Nc2nc3ccccc3o2)nc(-c2cccc([N+](=O)[O-])c2)c1C(=O)Nc1ccc(F)c(Cl)c1 | > 100 µM | > 100 µM | 12.4 µM | > 100 µM | > 100 µM | 11.5 µM | 4.26 µM | > 100 µM | 12.2 µM | 8.23 µM | 1980 nM | 2.29 µM | 1960 nM | 3.26 µM | 3.8 µM | 797 nM | 3.3 µM | 2.07 µM | 2.31 µM | 724 nM
COc1ccc(-c2nn(-c3cccc(NC(=O)c4ccc(N5CCOCC5)c(C(F)(F)F)c4)c3)cc2-c2ccncc2)cc1Cl | > 50 µM | > 50 µM | > 50 µM | 38.1 µM | > 50 µM | > 50 µM | > 50 µM | > 50 µM | > 50 µM | > 50 µM | 3740 nM | 2.99 µM | 2110 nM | 4.54 µM | > 50 µM | 3490 nM | 13.3 µM | > 50 µM | > 50 µM | 2060 nM
C=CS(=O)(=O)CCN1CC1 | > 10 µM | > 10 µM | > 10 µM | > 10 µM | > 10 µM | > 10 µM | > 10 µM | > 10 µM | > 10 µM | > 10 µM |  |  |  |  |  |  |  |  |  | 
N#Cc1cc(S(=O)(=O)Nc2nc3ccccc3s2)c(SCc2ccccc2)cc1Cl | 32.5 µM | 66.4 µM | 46.7 µM | 37.1 µM | 54.7 µM | 51.1 µM | > 100 µM | 78.5 µM | 97.5 µM | 35.2 µM | 16100 nM | 28.5 µM | 19800 nM | 18.9 µM | 23.8 µM | 23100 nM | 24.7 µM | 37.3 µM | 15.4 µM | 27900 nM
Cc1c(Sc2ccccc2)[n+](=O)c2cc(Cl)c(Cl)cc2n1[O-] | 59.4 µM | > 100 µM | > 100 µM | > 100 µM | > 100 µM | > 100 µM | > 100 µM | > 100 µM | 70.6 µM | 44.6 µM | 27400 nM | 53.7 µM | > 100000 nM | 46.8 µM | > 100 µM | > 100000 nM | > 100 µM | 26.1 µM | 16 µM | 51700 nM
CN(/N=N/c1nc(OCc2ccccc2)c2[nH]cnc2n1)C(=O)Oc1ccc([N+](=O)[O-])cc1 | 16 µM | 20 µM | 18.7 µM | 18.4 µM | > 50 µM | 27.1 µM | > 50 µM | 29.5 µM | 34 µM | > 50 µM | 8680 nM | 8.9 µM | 8490 nM | 8.87 µM | 11.5 µM | 10800 nM | 9.44 µM | 12 µM | 39 µM | 9120 nM
C=C1c2c(Cl)ccc(O)c2C(O)=C2C(=O)[C@]3(O)C(O)=C(C(N)=O)C(=O)[C@@H](N(C)C)[C@@H]3[C@@H](O)[C@H]12 | 3.22 µM | > 50 µM | 6.17 µM | 5.79 µM | 25.4 µM | 31.4 µM | 4.25 µM | 7.16 µM | 3.41 µM | 3.61 µM | 970 nM | 1.44 µM | 1490 nM | 1.32 µM | 2.09 µM | 1340 nM | 1.41 µM | 0.656 µM | 0.888 µM | 1100 nM
